From patent publication US20180071317A1, “USE OF AGENTS THAT ALTER THE PERITUMORAL ENVIRONMENT FOR THE TREATMENT OF CANCER” (SERVICIO ANDALUZ DE SALUD, priority 2011, published 2018)

How the values were obtained:
[1] = tested on: fibroblasts (PHF) co-cultured with tumor cells of human Edwing sarcoma (MHH-ES-1); assay: Marker expression (IHC) in PHF co-cultured with MHH-ES-1 tumor cells; format: cell-based; settings: PHF co-cultured with MHH-ES-1 + SP + NK1 antagonist
Experimental: (§1) All cultures were maintained 48 hours, following which the same cells were included in paraffin blocks for subsequent analysis of the expression of different markers by immunohistochemistry (see Example 1). […] All experiments were carried out sixfold. Analyzed markers in fibroblast cells (stromal cells) were: TGF-α, TGF-β1, TGF-β2, TGF-β3, SPARC, MMP-3, MMP-7, MMP-9, MMP-11, MMP-13 and MMP-14.

[2] = tested on: fibroblasts (PHF) co-cultured with tumor cells of human colon adenocarcinoma (SW-403); assay: Marker expression (IHC) in PHF co-cultured with SW-403 tumor cells; format: cell-based; settings: co-culture with SW-403; SP 1 μM + antagonist 1 μM; 48 h
Experimental: (§2) All cultures were maintained 48 hours, following which the same cells were included in paraffin blocks for subsequent analysis of the expression of different markers by immunohistochemistry (see Example 1). The primary antibodies used to perform immunohistochemical assays and their concentration are detailed in Example 2. All experiments were carried out sixfold. Analyzed markers in fibroblast cells (stromal cells) were: TGF-α, TGF-β1, TGF-β2, TGF-β3, SPARC, MMP-3, MMP-7, MMP-9, MMP-11, MMP-13 and MMP-14.

[3] = tested on: fibroblasts (PHF) co-cultured with tumor cells in human prostate carcinoma (22Rv1); assay: Marker expression (IHC) in PHF co-cultured with 22Rv1 tumor cells; format: cell-based; settings: co-culture with 22Rv1; SP 1 μM + antagonist 1 μM; 48 h;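 further: cultures grown on fresh plasma from a healthy donor, each experiment run sixfold, values give the percentage of fibroblasts positive for the given marker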
Experimental: as §1

[4] = tested on: fibroblasts (PHF) co-cultured with tumor cells, ovarian carcinoma (EFO-27); assay: Marker expression (IHC) in PHF co-cultured with EFO-27 tumor cells; format: cell-based, human; settings: co-culture with EFO-27; SP 1 μM + antagonist 1 μM; 48 h;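 further: values are the percentage of PHF fibroblasts positive for each marker, cultured in fresh plasma from a healthy human donor, each experiment run in six replicates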
Experimental: as §1

[5] = tested on: fibroblasts (PHF) co-cultured with tumor cells of human Burkitt lymphoma (CA-46); assay: Marker expression (IHC) in PHF co-cultured with CA-46 tumor cells; format: cell-based; settings: PHF co-cultured with CA-46 + SP + NK1 antagonist;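 further: percentage of PHF fibroblasts positive for each marker, cultures grown in fresh human plasma from a healthy donor, six replicates, compared with fibroblasts cultured alone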
Experimental: as §2

[6] = tested on: human primary fibroblasts (PHF); assay: Marker expression (immunohistochemistry) in human primary fibroblasts with SP alone or with NK1 antagonists; format: cell-based; settings: SP 1 μM + antagonist 1 μM; 48 h;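 further: primary human dermal fibroblasts, immunostained with rabbit polyclonal antibodies against each marker, value is percentage of stained cells among all cells counted in 20 fields at 400× per section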
Experimental: These PHF were obtained and purified from samples obtained from the dermis of the skin of healthy volunteers as described in De Bari et al (De Bari et al. 2001). Briefly, small pieces of skin dermis were digested in a solution of hyaluronidase (Sigma-Aldrich, USA) at a concentration of 1 mg/ml for 15 minutes at 37° C. and then treated with 6 mg/ml collagenase type IV (Invitrogen) for 2 hours at 37° C. Then, the cells were washed, resuspended in DMEM culture medium with high glucose (Dulbecco's Modified Eagle's Medium, Invitrogen) supplemented with 1% antibiotic-antimycotic (Invitrogen) and 1% pyruvate Sodium (Invitrogen), and seeded in culture dishes at a concentration of 10,000 cells per square centimeter. When the cells reached confluence, adherent cells were detached using 0.5% sterile trypsin (Invitrogen) and used between passages 3 and 9. For tests shown below, the PHF were plated in 24-well plates at a concentration of 25,000 cells per well.
After 48 hours of culture, cells were harvested and paraffin cell-blocks for immunohistochemical analysis were constructed, as previously explained in Example 1.
In immunohistochemical assays the expression of the following markers were studied: TGFα (SAB4502953), TGF1 (SAB4502954), TGFβ2 (SAB4502956), TGFβ3 (SAB4502957), SPARC (HPA002989), MMP-3 (HPA007875) MMP-7 (SAB4501894), MMP-9 (SAB4501896), MMP-11 (SAB4501898), MMP-13 (SAB4501900) and MMP-14 (SAB4501901) using specific antibodies against them. All antibodies used were rabbit polyclonal antibodies obtained from Sigma-Aldrich and were used at a concentration of 1/1000. All experiments were carried out sixfold.
On each of the six sections cell counts were performed in 20 high power fields (400×) through an Olympus microscope (model CX31) to assess the immunostaining. On each of the fields total cell number and number of cells displaying immunostaining were counted, being then the percentage of cells displaying said immunostaining.

[7] = tested on: fibroblasts (PHF) co-cultured with human neuroblastoma tumor cells (KELLY); assay: Marker expression (IHC) in PHF co-cultured with KELLY tumor cells; format: cell-based; settings: PHF co-cultured with KELLY + SP + NK1 antagonist;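 further: Co-cultures grown on healthy-donor human blood plasma, run in six replicates, value is percentage of fibroblasts positive for each marker, compared with fibroblasts cultured alone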
Experimental: as §1

[8] = tested on: macrophages in co-culture with cells isolated from primary human tumors; assay: Marker expression (IHC) in macrophages co-cultured with primary human tumor cells (colon, breast, ovarian, lung carcinoma, melanoma); format: cell-based; settings: SP 1 μM + antagonist 1 μM;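 further: macrophages came from pleural or peritoneal washings of the patient who also supplied the tumor cells, and both were co-cultured on fresh blood plasma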
Experimental: To check that the interaction of tumor cells obtained directly from primary human immune cell/inflammatory (macrophages) cells, obtained from the patient stimulate secretion of substances by these macrophages recognized as important in survival of both cell types and in the progression of tumor cells, co-cultures were performed on fresh blood plasma, immune cell/inflammatory (macrophages) with tumor cells derived from primary tumors. All obtained from the same patient, to build an experimental model similar to human physiology.
Macrophages were obtained from washing or pleural or peritoneal from the same patient from which the primary tumor cells were obtained in each case.

[9] = tested on: fibroblasts (PHF) co-cultured with tumor cells, thyroid carcinoma; assay: Marker expression (IHC) in PHF co-cultured with thyroid carcinoma tumor cells; format: cell-based, human; settings: co-culture with thyroid carcinoma cells; SP 1 μM + antagonist 1 μM; 48 h;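 further: grown in fresh plasma from a healthy human donor, read-out is percent of fibroblasts positive for each marker, compared with fibroblasts cultured alone, run in six replicates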
Experimental: as §1

[10] = tested on: fibroblasts (PHF) co-cultured with tumor cells, thyroid carcinoma (reference A-427); assay: as above; format: cell-based, human; settings: co-culture with thyroid carcinoma cells; SP 1 μM + antagonist 1 μM; 48 h
Experimental: as §1

[11] = tested on: human primary macrophages (PHM); assay: Marker expression (immunohistochemistry) in human primary macrophages with SP alone or with NK1 antagonists; format: cell-based; settings: SP 1 μM + antagonist 1 μM; 48 h
[12] = tested on: fibroblasts (PHF) co-cultured with human choriocarcinoma tumor cells (AC-1M32); assay: Marker expression (IHC) in PHF co-cultured with AC-1M32 tumor cells; format: cell-based; settings: co-culture with AC-1M32; SP 1 μM + antagonist 1 μM; 48 h;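 further: Read-out is the percentage of PHF fibroblasts positive for each marker, with cells grown in fresh healthy-donor blood plasma, six replicates, reference being fibroblasts cultured alone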
Experimental: as §1

[13] = co-culture with cells isolated from breast carcinoma
[14] = co-culture with cells isolated from colon carcinoma
[15] = co-culture with cells isolated from lung carcinoma
[16] = co-culture with cells isolated from melanoma
[17] = co-culture with cells isolated from ovarian carcinoma

C[C@@H](O[C@H]1OCCN(Cc2n[nH]c(=O)[nH]2)[C@H]1c1ccc(F)cc1)c1cc(C(F)(F)F)cc(C(F)(F)F)c1 [Aprepitant]
0%: cells expressing MMP-3 [1] | cells expressing MMP-7 [1] | cells expressing MMP-9 [1] | cells expressing MMP-11 [1] | cells expressing MMP-13 [1] | cells expressing MMP-14 [1] | cells expressing SPARC [1] | cells expressing TGF-α [1] | cells expressing TGF-β1 [1] | cells expressing TGF-β2 [1] | cells expressing TGF-β3 [1] | PHF cells expressing MMP-3 [2] | PHF cells expressing MMP-7 [2] | PHF cells expressing MMP-9 [2] | PHF cells expressing MMP-11 [2] | PHF cells expressing MMP-13 [2] | PHF cells expressing MMP-14 [2] | PHF cells expressing SPARC [2] | PHF cells expressing TGF-α [2] | PHF cells expressing TGF-β1 [2] | PHF cells expressing TGF-β2 [2] | PHF cells expressing TGF-β3 [2] | PHF cells expressing MMP-3 [3] | PHF cells expressing MMP-7 [3] | PHF cells expressing MMP-9 [3] | PHF cells expressing MMP-11 [3] | PHF cells expressing MMP-13 [3] | PHF cells expressing MMP-14 [3] | PHF cells expressing SPARC [3] | PHF cells expressing TGF-α [3] | PHF cells expressing TGF-β1 [3] | PHF cells expressing TGF-β2 [3] | PHF cells expressing TGF-β3 [3] | PHF cells expressing MMP-3 [4] | PHF cells expressing MMP-7 [4] | PHF cells expressing MMP-9 [4] | PHF cells expressing MMP-11 [4] | PHF cells expressing MMP-13 [4] | PHF cells expressing MMP-14 [4] | PHF cells expressing SPARC [4] | PHF cells expressing TGF-α [4] | PHF cells expressing TGF-β1 [4] | PHF cells expressing TGF-β2 [4] | PHF cells expressing TGF-β3 [4] | cells expressing MMP-3 [5] | cells expressing MMP-7 [5] | cells expressing MMP-9 [5] | cells expressing MMP-11 [5] | cells expressing MMP-13 [5] | cells expressing MMP-14 [5] | cells expressing SPARC [5] | cells expressing TGF-α [5] | cells expressing TGF-β1 [5] | cells expressing TGF-β2 [5] | cells expressing TGF-β3 [5] | PHF cells expressing MMP-3 [6] | PHF cells expressing MMP-7 [6] | PHF cells expressing MMP-9 [6] | PHF cells expressing MMP-11 [6] | PHF cells expressing MMP-13 [6] | PHF cells expressing MMP-14 [6] | PHF cells expressing SPARC [6] | PHF cells expressing TGFα [6] | PHF cells expressing TGFβ 1 [6] | PHF cells expressing TGFβ 2 [6] | PHF cells expressing TGFβ 3 [6] | cells expressing MMP-3 [7] | cells expressing MMP-7 [7] | cells expressing MMP-9 [7] | cells expressing MMP-11 [7] | cells expressing MMP-13 [7] | cells expressing MMP-14 [7] | cells expressing SPARC [7] | cells expressing TGF-α [7] | cells expressing TGF-β1 [7] | cells expressing TGF-β2 [7] | cells expressing TGF-β3 [7] | Percentage of macrophages which expressed EGF [8, 13] | Percentage of macrophages which expressed MMP-9 [8, 13] | Percentage of macrophages which expressed VEGF [8, 13] | Percentage of macrophages which expressed EGF [8, 14] | Percentage of macrophages which expressed MMP-9 [8, 14] | Percentage of macrophages which expressed VEGF [8, 14] | Percentage of macrophages which expressed EGF [8, 15] | Percentage of macrophages which expressed MMP-9 [8, 15] | Percentage of macrophages which expressed VEGF [8, 15] | Percentage of macrophages which expressed EGF [8, 16] | Percentage of macrophages which expressed MMP-9 [8, 16] | Percentage of macrophages which expressed VEGF [8, 16] | Percentage of macrophages which expressed EGF [8, 17] | Percentage of macrophages which expressed MMP-9 [8, 17] | Percentage of macrophages which expressed VEGF [8, 17] | PHF cells expressing MMP-11 [9] | PHF cells expressing MMP-3 [10] | PHF cells expressing MMP-7 [10] | PHF cells expressing MMP-9 [10] | PHF cells expressing MMP-13 [10] | PHF cells expressing MMP-14 [10] | PHF cells expressing SPARC [10] | PHF cells expressing TGF-α [10] | PHF cells expressing TGF-β1 [10] | PHF cells expressing TGF-β2 [10] | PHF cells expressing TGF-β3 [10] | macrophages expressing EGF [11] | macrophages expressing MMP-9 [11] | macrophages expressing VEGF [11] | PHF cells expressing MMP-3 [12] | PHF cells expressing MMP-7 [12] | PHF cells expressing MMP-9 [12] | PHF cells expressing MMP-11 [12] | PHF cells expressing MMP-13 [12] | PHF cells expressing MMP-14 [12] | PHF cells expressing SPARC [12] | PHF cells expressing TGF-α [12] | PHF cells expressing TGF-β1 [12] | PHF cells expressing TGF-β2 [12] | PHF cells expressing TGF-β3 [12]
